Consider 11 molecules from ChEMBL document CHEMBL1201862, “PubChem BioAssay data set” (2004).

Among the test systems are SW-620; HT-29; OVCAR-8; UACC-257; SF-268; SK-MEL-28; A498; M14; MDA-N; HL-60; MDA-MB-231; NCI-H23; OVCAR-5; NCI-H460; HCT-15; CCRF-CEM; HOP-92; COLO 205; IGROV-1; Malme-3M.
Assay in all cases: inhibition of tumour cell growth, NCI panel, 48 h

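Five compound concentrations were applied to cells in 96-well plates for 48 hours; endpoints were derived by simple linear interpolation of the resulting dose-response curve. At the GI50, growth is halved.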 Calls of active or inactive are those of the source. No stated cut-off is given here; in the data, active = GI50 up to about 1.1 µM and inactive = higher. Where only a bound is given, the exact number is not on record here.

Turning to `COc1ccc(/C=C/C(=O)N[C@@H]2C(=O)N3[C@@H]2SC(C)(C)[C@@H]3C(=O)O)cc1OC`, the GI50 in the experiment with SW-620, in the experiment on HT-29, in the experiment with OVCAR-8, with UACC-257, in the experiment on SF-268 and in the experiment on SK-MEL-28 was > 100 µM (inactive) throughout. The GI50 with A498, with M14, in the experiment with MDA-N, in the experiment on HL-60, in the experiment with MDA-MB-231 and in the experiment on NCI-H23 was > 100 µM (inactive) throughout. The GI50 with OVCAR-5 is > 100 µM (inactive); with NCI-H460 it was > 100 µM (inactive); in the experiment with HCT-15 it was above 100 µM; with CCRF-CEM it was > 100 µM (inactive); in the experiment with HOP-92, > 100 µM (inactive); in the experiment with COLO 205, > 100 µM (inactive).
`CCCNC(=O)c1cc(NC(=O)c2cc(NC(=O)/C=C/c3ccccc3)c(OC)c(OC)c2)c(OC)c(OC)c1`: the GI50 with SW-620 is > 100 µM (inactive); in the experiment with HT-29 it was 11.8 µM (inactive); with OVCAR-8, 4.51 µM (inactive); in the experiment with UACC-257, 14.2 µM (inactive); with SF-268, 2.05 µM (inactive); with SK-MEL-28 it was 14.5 µM (inactive). The GI50 is 11.4 µM (inactive) with A498; 38.4 µM (inactive) in the experiment on M14; 13.8 µM (inactive) with MDA-N; > 100 µM (inactive) with HL-60; 1.26 µM (inactive) in the experiment with MDA-MB-231; 11.4 µM (inactive) in the experiment with NCI-H23. For the same molecule, the GI50 is 12.7 µM (inactive) in the experiment on OVCAR-5; 11.8 µM (inactive) in the experiment on NCI-H460; 92.3 µM in the experiment with HCT-15; > 100 µM (inactive) with CCRF-CEM; 12.4 µM (inactive) in the experiment on IGROV-1; 3.08 µM (inactive) with Malme-3M. The GI50 in the experiment on COLO 205 is > 100 µM (inactive).
As to `Cc1ccc(OCCn2cc(Nc3ccccc3)c(=O)[nH]c2=O)cc1`, the GI50 was > 100 µM (inactive) with SW-620; 81.7 µM (inactive) in the experiment on HT-29; > 100 µM (inactive) in the experiment with OVCAR-8; > 100 µM (inactive) in the experiment on UACC-257; > 100 µM (inactive) in the experiment with SF-268; > 100 µM (inactive) in the experiment on SK-MEL-28. In addition, the GI50 with A498, in the experiment with M14, in the experiment with MDA-N, with MDA-MB-231, with NCI-H23 and with OVCAR-5 was > 100 µM (inactive) each time. Further, the GI50 in the experiment with NCI-H460 was > 100 µM (inactive); with HCT-15, above 100 µM; in the experiment on CCRF-CEM, > 100 µM (inactive); in the experiment on IGROV-1, > 100 µM (inactive); with HOP-92 it was > 100 µM (inactive); with Malme-3M, > 100 µM (inactive). In the experiment on COLO 205, the GI50 was > 100 µM (inactive).
Regarding `CCCCc1ccc(N2C(=O)c3cc([N+](=O)[O-])cnc3S2(=O)=O)cc1`, the GI50 was > 100 µM (inactive) in the experiment with SW-620; > 100 µM (inactive) with HT-29; > 100 µM (inactive) with OVCAR-8; > 100 µM (inactive) in the experiment with UACC-257; 24.2 µM (inactive) in the experiment with SF-268; > 100 µM (inactive) in the experiment with SK-MEL-28. For the same molecule, the GI50 in the experiment with A498, in the experiment with M14, with MDA-N, in the experiment on MDA-MB-231, in the experiment with NCI-H23 and in the experiment on OVCAR-5 was > 100 µM (inactive) in each case. In addition, the GI50 in the experiment on NCI-H460 is > 100 µM (inactive); in the experiment on HCT-15, above 100 µM; with CCRF-CEM it was > 10 µM (inactive); in the experiment with IGROV-1 it was > 100 µM (inactive); in the experiment with HOP-92, 0.424 µM (active); in the experiment on Malme-3M, > 100 µM (inactive). Further, the GI50 with COLO 205 is > 100 µM (inactive).
On to `O=C(N/N=C(COc1ccccc1)\N=C\c1ccncc1)c1ccncc1`, for which the GI50 in the experiment with SW-620, in the experiment on HT-29, in the experiment with OVCAR-8, with UACC-257, in the experiment with SF-268 and with SK-MEL-28 was > 100 µM (inactive) throughout. The GI50 in the experiment on A498, in the experiment on M14, with MDA-N, in the experiment with HL-60, with MDA-MB-231 and in the experiment with NCI-H23 was > 100 µM (inactive) throughout. Further, the GI50 was > 100 µM (inactive) with OVCAR-5; > 100 µM (inactive) in the experiment on NCI-H460; above 100 µM with HCT-15; > 100 µM (inactive) in the experiment with CCRF-CEM; > 100 µM (inactive) with IGROV-1; 68.7 µM (inactive) in the experiment on HOP-92. In the experiment with COLO 205, the GI50 was > 100 µM (inactive).
Take `CC(C)(CO)NC(=O)Nc1c(C(F)(F)F)cc(-c2ccccc2)[nH]c1=O`: the GI50 in the experiment with SW-620, in the experiment with HT-29, in the experiment with OVCAR-8, in the experiment with UACC-257, in the experiment on SF-268 and in the experiment on SK-MEL-28 was > 100 µM (inactive) throughout. The GI50 in the experiment with A498, with M14, in the experiment with MDA-N, in the experiment on MDA-MB-231, in the experiment on NCI-H23 and in the experiment on OVCAR-5 was > 100 µM (inactive) each time. Also, the GI50 in the experiment with NCI-H460 is > 100 µM (inactive); in the experiment with HCT-15, above 100 µM; in the experiment on CCRF-CEM, > 100 µM (inactive); in the experiment on IGROV-1 it was > 100 µM (inactive); with HOP-92, > 100 µM (inactive); with Malme-3M, > 100 µM (inactive). In addition, the GI50 with COLO 205 was > 100 µM (inactive).
With `COC(=O)[C@]12CSC[C@H]1C[C@H](c1cccc3ccccc13)N2`, the GI50 in the experiment with SW-620, in the experiment with OVCAR-8, with UACC-257, with SK-MEL-28, with A498 and in the experiment on M14 was > 100 µM (inactive) throughout. The GI50 is > 100 µM (inactive) in the experiment on MDA-N; > 100 µM (inactive) with MDA-MB-231; 91.2 µM (inactive) with NCI-H23; > 100 µM (inactive) in the experiment with OVCAR-5; 44.3 µM (inactive) with NCI-H460; above 100 µM with HCT-15. Besides, the GI50 was 30.2 µM (inactive) in the experiment with CCRF-CEM, 43.1 µM (inactive) in the experiment with IGROV-1, > 100 µM (inactive) with HOP-92 and > 100 µM (inactive) in the experiment with COLO 205.
In the case of `CN(C)CCOc1ccc([N+](=O)[O-])c2cccnc12`, the GI50 in the experiment with SW-620 was 78.7 µM (inactive); with HT-29, 39.4 µM (inactive); with OVCAR-8, > 100 µM (inactive); with UACC-257, 86.9 µM (inactive); with SF-268, > 100 µM (inactive); in the experiment with SK-MEL-28 it was > 100 µM (inactive). The GI50 with A498 was > 100 µM (inactive); in the experiment with M14, > 100 µM (inactive); in the experiment on MDA-N, 79.1 µM (inactive); in the experiment on HL-60 it was > 100 µM (inactive); in the experiment on MDA-MB-231, 30.2 µM (inactive); in the experiment on NCI-H23, > 100 µM (inactive). Also, the GI50 in the experiment with OVCAR-5 is > 100 µM (inactive); in the experiment with NCI-H460, > 100 µM (inactive); in the experiment on HCT-15 it was above 100 µM; in the experiment with CCRF-CEM it was > 100 µM (inactive); with IGROV-1, > 100 µM (inactive); in the experiment on Malme-3M it was > 100 µM (inactive). Moreover, the GI50 in the experiment with COLO 205 was 43 µM (inactive).
Turning to `C[C@H](NC1=C(Cl)C(=O)c2c(O)ccc(O)c2C1=O)C(=O)Nc1ccc([N+](=O)[O-])cc1`, the GI50 was 3.05 µM (inactive) in the experiment with SW-620; 2.62 µM (inactive) in the experiment on HT-29; 2.37 µM (inactive) in the experiment with OVCAR-8; 1.95 µM (inactive) with UACC-257; 2.16 µM (inactive) in the experiment on SF-268; 2.03 µM (inactive) in the experiment on SK-MEL-28. In addition, the GI50 is 2.39 µM (inactive) in the experiment on A498; 1.25 µM (inactive) in the experiment on M14; 2.4 µM (inactive) in the experiment with MDA-N; 1.91 µM (inactive) in the experiment with MDA-MB-231; 2.02 µM (inactive) in the experiment with NCI-H23; 1.77 µM (inactive) in the experiment with OVCAR-5. Also, the GI50 in the experiment on NCI-H460 is 2.06 µM (inactive); in the experiment on HCT-15 it was 1.93 µM; with CCRF-CEM, 0.305 µM (active); in the experiment with IGROV-1, 2.5 µM (inactive); with HOP-92 it was 2.08 µM (inactive); with Malme-3M it was 1.19 µM (inactive). For the same molecule, the GI50 in the experiment with COLO 205 was 1.59 µM (inactive).
Take `CN(C)CCSc1cc(-c2ccccc2)c2ccccc2n1`: the GI50 in the experiment with SW-620 is 6.14 µM (inactive); in the experiment on HT-29 it was 5.78 µM (inactive); in the experiment with OVCAR-8, 19.1 µM (inactive); in the experiment with UACC-257 it was 10.4 µM (inactive); in the experiment on SF-268, 11.8 µM (inactive); in the experiment on SK-MEL-28, 4.7 µM (inactive). The GI50 with A498 is 16 µM (inactive); with M14, 2.69 µM (inactive); in the experiment with MDA-N, 10.2 µM (inactive); with HL-60, 3.69 µM (inactive); in the experiment with MDA-MB-231 it was 11.3 µM (inactive); with NCI-H23, 10 µM (inactive). In addition, the GI50 in the experiment with OVCAR-5 was 13.4 µM (inactive); in the experiment with HCT-15, 3.82 µM; in the experiment with CCRF-CEM, 10.5 µM (inactive); in the experiment with IGROV-1, 12.9 µM (inactive); with Malme-3M, 10.8 µM (inactive); with COLO 205 it was 1.97 µM (inactive).
`[O-][S+](c1ccccc1)c1ccc(/N=N/O)nc1` (centres undefined): the GI50 in the experiment on SW-620, with HT-29, in the experiment on OVCAR-8, in the experiment on UACC-257, with SF-268 and with SK-MEL-28 was > 100 µM (inactive) throughout. For the same molecule, the GI50 with A498, in the experiment with M14, in the experiment with MDA-N, in the experiment on HL-60, in the experiment on MDA-MB-231 and in the experiment with NCI-H23 was > 100 µM (inactive) throughout. In addition, the GI50 with OVCAR-5 was > 100 µM (inactive); in the experiment with NCI-H460, > 100 µM (inactive); in the experiment with HCT-15, above 100 µM; in the experiment with CCRF-CEM, > 100 µM (inactive); in the experiment with IGROV-1, > 100 µM (inactive); with Malme-3M, 0.492 µM (active). In the experiment with COLO 205, the GI50 is > 100 µM (inactive).
